Converted amounts (≈) assume the structure as drawn. Read-outs that look alike come from different tables or passages of the source.
Key:
[1] = system: Asexual parasites of P. falciparum strain 3D7; experiment: In vitro drug activity on asexual parasites (SYBR Green assay); assay type: cell-based; settings: Plasmodium falciparum, P. falciparum 3D7 asexual stage, 72 h, read-out: Asexual EC50
Experimental: Cell culture. Asexual parasites of P. falciparum strain 3D7 were cultured as described previously [Trager W, et al., Journal of Parasitology 2005, 91: 484-486]. Stage III-V gametocytes were selected and enriched with 3-day treatment with 50 mM N-acetylglucosamine (NAG) and the following Percoll density gradient centrifugation after gametocyte production [Tanaka T Q, et al., Molecular and Biochemical Parasitology, 2011, 177: 160-163]. Gametocytes of HB3 and Dd2 strains were produced and then set up for assay in a similar process. HepG2 cells (ATCC, cat. no. 77400) were cultured in 175-cm^2 tissue culture flasks with 30 ml growth medium at 37° C. in a 5% CO2 humidified atmosphere. Growth medium was made with Dulbecco's Modified Eagle Medium with 10% fetal bovine serum (FBS). Growth medium was replaced every other day and cells were passed at 75% confluence.
Asexual parasites of P. falciparum strain 3D7 were cultured as described previously (Trager, W. et al., J. Parasitol. 2005, 91(3): 484-486). Drug activity on asexual stage parasites was tested using a SYBR Green assay as described previously (Eastman, R. T. et al., Antimicrob. Agents Chemother. 2013, 57(1): 425-435; Smilkstein, M. et al., Antimicrob. Agents Chemother. 2004, 48(5): 1803-1806). Briefly, parasites were diluted to 0.5% parasitemia in complete culture medium with 2% hematocrit and drugs diluted in DMSO (<0.5%) and were loaded into a 96-well plate (200 μl/well). No drug and RBC alone wells were included as positive and background controls, respectively, and each testing condition was examined in duplicated. After 72 h incubation under the standard culture condition and a freeze-thaw lysis step at −80° C. and room temperature, 100 μl/well of lysis buffer containing SYBR Green I was added to the parasite culture and incubated for 30 min at room temperature. The fluorescence of each well was measured at 520 nm following excitation at 490 nm using a FLUOstar Optima™ microplate reader (BMG Labtech).
Compounds were screened against gametocytes and asexual parasites as described in Examples 1 and 2.

[2] = Microsomal stability (rat); assay type: in vitro ADME; settings: rat microsomes
Solubility pH 7.4 = assay type: physicochemical; settings: aqueous buffer
[3] = Table 1, read-out: Microsomal Stability (rat) T1/2
[4] = Table 3, read-out: Microsomal Stability (rat) T1/2

Which EC50 ([1]; Table 1) does the source give for `COc1ccc(-n2c(=N)n(C)c3cnc4ccc(-c5ccc(Cl)cc5)cc4c32)cc1C#N` [Compound 84, 5-(8-(4-chlorophenyl)-2-imino-3-methyl-2,3-dihydro-1H-imidazo[4,5-c]quinolin-1-yl)-2-methoxybenzonitrile] here?
Its EC50 is 0.658 µM.

What about the half-life [2, 3] of the same compound?
Its half-life is over 30 min.

What about the solubility (Solubility pH 7.4; Table 1) of the same compound?
Its solubility is under 1 µg/mL.

Which results are given for `Cc1ccccc1-n1c(=N)n(C)c2cnc3ccc(-c4ccc(Cl)cc4)cc3c21` [Compound 81, 8-(4-chlorophenyl)-3-methyl-1-(o-tolyl)-1,3-dihydro-2H-imidazo[4,5-c]quinolin-2-imine]?
EC50 ([1]; Table 1): 1.64 µM; half-life [2, 3]: > 30 min; solubility (Solubility pH 7.4; Table 1): > 39 µg/mL

Which EC50 ([1]; Table 3) does the source give for `Cn1c(=N)n(-c2ccnc(N)n2)c2c3cc(-c4cccc(F)c4)ccc3ncc21` here?
Its EC50 is 0.523 µM.

And the half-life [2, 4]?
The half-life was over 30 min.

What about the solubility (Solubility pH 7.4; Table 3) of the same compound?
The solubility was 20.9 µg/mL (≈ 54.2 µM).

For `Cn1c(=N)n(-c2ccccc2F)c2c3cc(-c4ccc(Cl)cc4)ccc3ncc21` [Compound 80, 8-(4-chlorophenyl)-1-(2-fluorophenyl)-3-methyl-1,3-dihydro-2H-imidazo[4,5-c]quinolin-2-imine], which EC50 ([1]; Table 1) is on record?
The EC50 was 0.955 µM.

And the half-life [2, 3]?
Its half-life is over 30 min.

What about the solubility (Solubility pH 7.4; Table 1) of the same compound?
The solubility was 12.4 µg/mL (≈ 30.8 µM).

Which EC50 ([1]; Table 1) does the source give for `Cc1cc(N2CCNCC2)c(C#N)cc1-n1c(=N)n(C)c2cnc3ccc(-c4ccc(Cl)cc4)cc3c21` [Compound 14, 5-(8-(4-chlorophenyl)-2-imino-3-methyl-2,3-dihydro-1H-imidazo[4,5-c]quinolin-1-yl)-4-methyl-2-(piperazin-1-yl)benzonitrile] here?
The EC50 was 0.175 µM.

What about the half-life [2, 3] of the same compound?
Its half-life is over 30 min.

What about the solubility (Solubility pH 7.4; Table 1) of the same compound?
Its solubility is under 1 µg/mL.

What does the source list for `Cc1ncc(C#N)cc1-n1c(=N)n(C)c2cnc3ccc(-c4ccc(Cl)cc4)cc3c21` [Compound 22, 5-(8-(4-chlorophenyl)-2-imino-3-methyl-2,3-dihydro-1H-imidazo[4,5-c]quinolin-1-yl)-6-methylnicotinonitrile]?
EC50 ([1]; Table 1): 0.0623 µM; half-life [2, 3]: > 30 min; solubility (Solubility pH 7.4; Table 1): 3.5 µg/mL (≈ 8.24 µM)

For `Cc1ccc(C#N)cc1-n1c(=N)n(C)c2cnc3ccc(-c4ccc(N)nc4)cc3c21` [Compound 2, 3-(8-(6-aminopyridin-3-yl)-2-imino-3-methyl-2,3-dihydro-H-imidazo[4,5-c]quinolin-1-yl)-4-methylbenzonitrile], which EC50 ([1]; Table 1) is on record?
Its EC50 is 0.00531 µM.

What about the half-life [2, 3] of the same compound?
Its half-life is over 30 min.

What about the solubility (Solubility pH 7.4; Table 1) of the same compound?
The solubility was over 60 µg/mL.

Which EC50 ([1]; Table 1) does the source give for `Cn1c(=N)n([C@H]2CC[C@H](N3CCNCC3)CC2)c2c3cc(-c4ccc(Cl)cc4)ccc3ncc21` [Compound 96, 8-(4-chlorophenyl)-3-methyl-1-((1r,4r)-4-(piperazin-1-yl)cyclohexyl)-1,3-dihydro-2H-imidazo[4,5-c]quinolin-2-imine] here?
Its EC50 is 2.63 µM.

And the half-life [2, 3]?
The half-life was over 30 min.

And the solubility (Solubility pH 7.4; Table 1)?
The solubility was over 47 µg/mL.

For `Cn1c(=N)n(C2CC(N3CCNCC3)C2)c2c3cc(-c4ccc(Cl)cc4)ccc3ncc21` (stereo not drawn) [Compound 98, 8-(4-chlorophenyl)-3-methyl-1-(3-(piperazin-1-yl)cyclobutyl)-1,3-dihydro-2H-imidazo[4,5-c]quinolin-2-imine], which EC50 ([1]; Table 1) is on record?
Its EC50 is 2.55 µM.

And the half-life [2, 3]?
Its half-life is over 30 min.

What about the solubility (Solubility pH 7.4; Table 1) of the same compound?
The solubility was over 44 µg/mL.

Which EC50 ([1]; Table 1) does the source give for `Cn1c(=N)n(C2CCCCC2)c2c3cc(-c4ccc(Cl)cc4)ccc3ncc21` [Compound 102, 8-(4-chlorophenyl)-1-cyclohexyl-3-methyl-1,3-dihydro-2H-imidazo[4,5-c]quinolin-2-imine] here?
The EC50 was 4.78 µM.

And the half-life [2, 3]?
The half-life was over 30 min.

What about the solubility (Solubility pH 7.4; Table 1) of the same compound?
Its solubility is 22.3 µg/mL (≈ 57 µM).

Which EC50 ([1]; Table 1) does the source give for `Cc1nc(N2CCOCC2)c(C#N)cc1-n1c(=N)n(C)c2cnc3ccc(-c4cccc(F)c4)cc3c21` [Compound 142, 5-(8-(3-fluorophenyl)-2-imino-3-methyl-2,3-dihydro-1H-imidazo[4,5-c]quinolin-1-yl)-6-methyl-2-morpholinonicotinonitrile] here?
Its EC50 is 0.225 µM.

What about the half-life [2, 3] of the same compound?
Its half-life is over 30 min.

And the solubility (Solubility pH 7.4; Table 1)?
The solubility was over 49 µg/mL.

With `Cc1ccc(C#N)cc1-n1c(=N)n(Cc2ccccc2)c2cnc3ccc(-c4ccc(Cl)cc4)cc3c21` [Compound 94, 3-(3-benzyl-8-(4-chlorophenyl)-2-imino-2,3-dihydro-1H-imidazo[4,5-c]quinolin-1-yl)-4-methylbenzonitrile] as the compound, how does the EC50 ([1]; Table 1) read?
Its EC50 is 9.17 µM.

And the half-life [2, 3]?
Its half-life is over 30 min.

And the solubility (Solubility pH 7.4; Table 1)?
The solubility was under 1 µg/mL.

Which EC50 ([1]; Table 1) does the source give for `Cn1cc(-n2c(=N)n(C)c3cnc4ccc(-c5ccc(Cl)cc5)cc4c32)cn1` [Compound 13, 8-(4-chlorophenyl)-3-methyl-1-(1-methyl-1H-pyrazol-4-yl)-1,3-dihydro-2H-imidazo[4,5-c]quinolin-2-imine] here?
Its EC50 is 0.477 µM.

And the half-life [2, 3]?
Its half-life is over 30 min.

And the solubility (Solubility pH 7.4; Table 1)?
Its solubility is over 38 µg/mL.

What does the source list for `Cc1ccc(S(=O)(=O)/N=c2\n(C)c3cnc4ccc(-c5ccc(Cl)cc5)cc4c3n2-c2cc(C#N)ccc2C)cc1` [Compound 16, (E)-N-(8-(4-chlorophenyl)-1-(5-cyano-2-methylphenyl)-3-methyl-1,3-dihydro-2H-imidazo[4,5-c]quinolin-2-ylidene)-4-methylbenzenesulfonamide]?
EC50 ([1]; Table 1): 0.24 µM; half-life [2, 3]: 10.4 min; solubility (Solubility pH 7.4; Table 1): < 1 µg/mL

For `Cc1cc(NCCN(C)C)c(C#N)cc1-n1c(=N)n(C)c2cnc3ccc(-c4ccc(Cl)cc4)cc3c21` [Compound 113, 5-(8-(4-chlorophenyl)-2-imino-3-methyl-2,3-dihydro-1H-imidazo[4,5-c]quinolin-1-yl)-2-((2-(dimethylamino)ethyl)amino)-4-methylbenzonitrile], which EC50 ([1]; Table 1) is on record?
The EC50 was 0.545 µM.

And the half-life [2, 3]?
Its half-life is over 30 min.

And the solubility (Solubility pH 7.4; Table 1)?
The solubility was over 50 µg/mL.

What does the source list for `Cc1cc(N2CC(C)OC(C)C2)c(C#N)cc1-n1c(=N)n(C)c2cnc3ccc(-c4ccc(Cl)cc4)cc3c21` (stereo not drawn) [Compound 117, 5-(8-(4-chlorophenyl)-2-imino-3-methyl-2,3-dihydro-1H-imidazo[4,5-c]quinolin-1-yl)-2-(2,6-dimethylmorpholino)-4-methylbenzonitrile]?
EC50 ([1]; Table 1): 0.373 µM; half-life [2, 3]: > 30 min; solubility (Solubility pH 7.4; Table 1): < 1 µg/mL

Which results are given for `Cn1c(=N)n(-c2nccc(N)n2)c2c3cc(-c4ccc(Cl)cc4)ccc3ncc21`?
EC50 ([1]; Table 3): 1.86 µM; half-life [2, 4]: > 30 min; solubility (Solubility pH 7.4; Table 3): < 1 µg/mL

With `Cc1ccc([S+](=O)([O-])/N=c2\ccc3cnc4ccc(-c5ccc(Cl)cc5)cc4c3n2-c2ccc(C(=O)NC3CC3)cc2)cc1` as the compound, how does the EC50 ([1]; Table 2) read?
Its EC50 is 0.059 µM.

What about the half-life ([2]; Table 2, read-out: Microsomal Stability (rat) T1/2) of the same compound?
Its half-life is 11.5 min.

And the solubility (Solubility pH 7.4; Table 2)?
Its solubility is under 1 µg/mL.

With `COc1cccc(-n2c(=N)n(C)c3cnc4ccc(-c5ccc(Cl)cc5)cc4c32)c1` [Compound 64, 8-(4-chlorophenyl)-1-(3-methoxyphenyl)-3-methyl-1,3-dihydro-2H-imidazo[4,5-c]quinolin-2-imine] as the compound, how does the EC50 ([1]; Table 1) read?
The EC50 was 1.3 µM.

And the half-life [2, 3]?
Its half-life is over 30 min.

What about the solubility (Solubility pH 7.4; Table 1) of the same compound?
The solubility was 20.8 µg/mL (≈ 50.1 µM).

Which EC50 ([1]; Table 1) does the source give for `Cn1c(=N)n(-c2ccccc2)c2c3cc(-c4ccc(Cl)cc4)ccc3ncc21` [Compound 63, 8-(4-chlorophenyl)-3-methyl-1-phenyl-1,3-dihydro-2H-imidazo[4,5-c]quinolin-2-imine] here?
Its EC50 is 1.04 µM.

What about the half-life [2, 3] of the same compound?
Its half-life is over 30 min.

What about the solubility (Solubility pH 7.4; Table 1) of the same compound?
The solubility was 5.7 µg/mL (≈ 14.8 µM).

Which results are given for `Cc1cc(N2CCN(S(C)(=O)=O)CC2)c(C#N)cc1-n1c(=N)n(C)c2cnc3ccc(-c4ccc(Cl)cc4)cc3c21` [Compound 118, 5-(8-(4-chlorophenyl)-2-imino-3-methyl-2,3-dihydro-1H-imidazo[4,5-c]quinolin-1-yl)-4-methyl-2-(4-(methylsulfonyl)piperazin-1-yl)benzonitrile]?
EC50 ([1]; Table 1): 0.135 µM; half-life [2, 3]: > 30 min; solubility (Solubility pH 7.4; Table 1): < 1 µg/mL

Which EC50 ([1]; Table 3) does the source give for `Cc1ncncc1-n1c(=N)n(C)c2cnc3ccc(-c4ccc(Cl)c(OC(F)(F)F)c4)cc3c21` here?
The EC50 was 0.158 µM.

And the half-life [2, 4]?
Its half-life is over 30 min.

What about the solubility (Solubility pH 7.4; Table 3) of the same compound?
The solubility was 16 µg/mL (≈ 33 µM).

Which EC50 ([1]; Table 3) does the source give for `Cn1c(=N)n(-c2nccc(N)n2)c2c3cc(-c4cccc(F)c4)ccc3ncc21` here?
The EC50 was 1.57 µM.

What about the half-life [2, 4] of the same compound?
The half-life was over 30 min.

And the solubility (Solubility pH 7.4; Table 3)?
The solubility was 5.2 µg/mL (≈ 13.5 µM).

Which results are given for `COC(=O)/N=c1\n(C)c2cnc3ccc(-c4cccc(F)c4)cc3c2n1-c1cc(C#N)c(N2CCN(C)CC2)cc1C` [Compound 146, Methyl (E)-(1-(5-cyano-2-methyl-4-(4-methylpiperazin-1-yl)phenyl)-8-(3-fluorophenyl)-3-methyl-1,3-dihydro-2H-imidazo[4,5-c]quinolin-2-ylidene)carbamate]?
EC50 ([1]; Table 1): 0.0627 µM; half-life [2, 3]: 21.2 min; solubility (Solubility pH 7.4; Table 1): 14.5 µg/mL (≈ 25.7 µM)

Which EC50 ([1]; Table 3) does the source give for `Cn1c(=N)n(-c2nccc(O)n2)c2c3cc(-c4ccc(Cl)cc4)ccc3ncc21` here?
The EC50 was 43.1 µM.

What about the half-life [2, 4] of the same compound?
The half-life was over 30 min.

What about the solubility (Solubility pH 7.4; Table 3) of the same compound?
Its solubility is under 1 µg/mL.

With `Cn1c(=N)n(-c2cncnc2)c2c3cc(-c4ccc(Cl)c(OC(F)(F)F)c4)ccc3ncc21` as the compound, how does the EC50 ([1]; Table 3) read?
Its EC50 is 0.315 µM.

And the half-life [2, 4]?
Its half-life is over 30 min.

What about the solubility (Solubility pH 7.4; Table 3) of the same compound?
Its solubility is under 1 µg/mL.
